US20220073642A1, “METHODS OF USING SURUFATINIB IN TREATING ADVANCED PANCREATIC AND EXTRA-PANCREATIC NEUROENDOCRINE TUMORS” (HUTCHISON MEDIPHARMA LIMITED, priority 2020, published 2022)
“And” between values parts separate entries of the source, which are not always exact repeats. Identical values can stand only once.

Assays:
[1] = SANET-p Phase III study, safety and exposure (NCI CTCAE v4.03); details: N = 113
From the text: SANET-p (NCT02589821) is a randomized, double-blind, placebo-controlled Phase III study evaluating the efficacy and safety of surufatinib compared to placebo in patients with progressive, advanced (unresectable local progression or distant metastasis), well-differentiated pancreatic neuroendocrine tumors.
Continuous administration (every 4 weeks as a treatment cycle). Surufatinib can be taken with or without food and should be taken as a single administration per day. It is recommended to take the drug at the same time every day. If the patient vomits after dosing surufatinib, there is no need to make up.
During the treatment, physician should closely monitor the patients and adjust dosage according to the safety and tolerability of individual patients, including dose interruption, dose reduction or permanently discontinue treatment. The dose adjustment should follow the guidance of interruption first and then dose reduction.

advanced pancreatic NETs = experiment: phase 1 study of surufatinib in patients from the United States; type: in vivo, human
Method: Although this trial was conducted fully in a Chinese patient population, the results appear to be applicable to Western patients. Encouraging results have been reported from an ongoing phase 1 study of surufatinib in patients from the United States with heavily treated advanced pancreatic NETs (4 median prior lines of therapy), with an objective response rate of 25.0% (4/16: 3 confirmed partial response and 1 unconfirmed partial response). The safety profile observed in this Western patient population was similar to those observed in the SANET-p trial, as well as in other clinical studies of surufatinib in NETs patients.
As compared with other trials involving patients with extra-pancreatic NETs, the population enrolled in this study was heterogenous. In addition, only Chinese patients were enrolled in this study, which may limit the extrapolation of the results to other populations: however, historically no ethnic differences in the efficacy of antiangiogenic agents for NETs have been reported.

[2] = Solubility of surufatinib; type: physicochemical
From the text: As used here, the term “surufatinib” (formerly named sulfatinib”)refers to N-(2-(dimethylamino)ethyl)-1-(3-(4-(2-methyl-1H-indol-5-yloxy)pyrimidin-2-ylamino)phenyl)methanesulfonamide or N-(2-(dimethylamino)ethyl)-1-(3-(4-(2-methyl-1H-indol-5-yloxy)pyrimidin-2-ylamino)phenyl)methanesulfonamide. Surufatinib is a small-molecule kinase inhibitor which mainly acts on VEGFRs-1, 2, 3, the FGFR1 and CSF1R. Surufatinib is a study drug formulated as an odorless, white or off-white powder in capsules, with strengths of 50 mg and 200 mg. […] Herein, “surufatinib” may be referred to as “drug,” “active agent,” “a therapeutically active agent,” or “API.”

NETs = experiment: Phase I dose escalation clinical study, extension stage (NCT02133157); type: in vivo, human; details: 21 efficacy evaluable patients with NETs
From the text: This multi-center, open-label, dose-escalation phase I study investigated the safety, pharmacokinetic characteristics, and preliminary anti-tumor activity of surufatinib in patients with advanced solid tumors. The primary objective was to determine the maximum tolerated dose (MTD), recommended phase II trial dose (RPTD), and the safety profile of Surufatinib when administered to patients with advanced malignant solid tumors. A secondary objective was to evaluate the pharmacokinetic profile of Surufatinib, and exploratory objectives included evaluating the ORR among patients given Surufatinib therapy and determining whether biomarkers for angiogenesis might reflect any clinical efficacy shown by Surufatinib. A modified Fibonacci 3+3 construct was used to design this dose escalation study and determine the MTD of Surufatinib.
In addition, similar efficacy trends have also been shown in the Phase Ib/II study of patients with NETs (Jianming Xu et al. Clin Cancer Res. 25(12):3486-3494). […] Therefore, further clinical investigation of Surufatinib is valuable.

[3] = SANET-ep Phase III study, safety and exposure (NCI CTCAE v4.03); type: in vivo, human; details: N = 129
Method: (§1) This study is a randomized, double-blind, placebo-controlled, multi-center Phase III study to assess the efficacy and safety of Surufatinib in treating advanced extra-pancreatic neuroendocrine tumors.
(§2) Surufatinib, 300 mg, once daily (QD), orally
(§3) Continuous administration (every 4 weeks as a treatment cycle).

[4] = tested on: advanced extra-pancreatic neuroendocrine tumors; experiment: SANET-ep Phase III study, efficacy (RECIST 1.1); type: in vivo, human
From the text: as §1
The targeted population are progressive, locally advanced or distant metastatic extra-pancreatic NETs (including, but not limited to: lungs, thymus gland and gastrointestinal origins like stomach, duodenum, liver, jejunum, ileum, colon, caecum, vermiform appendix and rectum, and unknown origin) patients with no possibility of radical resection of tumor, and of pathologically with low or intermediate grade (G1 or G2). For Gastrointestinal neuroendocrine tumors (GI-NETs), G1 is defined as <2 mitoses/10 high-power field
(§4) [HPF] and/or <3% Ki-67 index; G2 is defined as 2-20/10 HPF and/or 3-20% Ki-67 index; for NETs originating from the lung and thymus gland, G1 is defined as <2 mitoses/10 HPF and no necrosis; G2 is defined as 2-10/10 HPF and/or foci of necrosis. NETs from origin other than GI-NET, lung and thymus, or from unknown origins should be graded according to the GI-NET grading criteria. If the mitotic ratio and Ki-67 index correspond to different grade, the higher grade should be used to assign classification. All patients must provide tumor samples for central pathology review to check as of whether the diagnostics and grade score comply with inclusion criteria. Patients must have radiological documentation of progression of disease within 12 months prior to randomization. Patients must have previously progressed no more than two types of systemic anti-tumor therapy, including long-acting somatostatin analogs (SSAs), interferon, PRRT (peptide receptor radionuclide therapy), mammalian target of rapamycin (mTOR) inhibitors or chemotherapy (all chemotherapies are deemed as a single therapy regardless of drug or time); patients who are unable or unwilling to receive such treatments are also eligible if all other criteria are met.
Approximately 273 patients will be randomly assigned (in 2:1 ratio) to the following treatment groups based on interactive web response system IWRS:
as §2, §3
(§5) According to the randomized result, the patients will receive continuous oral treatment, every 4-week treatment cycle until progression of disease occurs, intolerable toxicity or other protocol-specified end-of-treatment criteria is met.
(§6) In accordance with RECIST 1.1, the tumor should be assessed every 8 weeks (±3 days) within the first year and every 12 weeks (±3 days) after the patient has been treated for more than one year.
(§7) 1) Primary therapeutic endpoint: PFS (according to RECIST 1.1 criteria)
(§8) 2) Secondary therapeutic endpoint: Objective Response Rate of the tumor (ORR), Disease Control Rate (DCR), Duration of Response (DoR), Time to Response (TTR) and Overall Survival (OS) (according to RECIST 1.1 criteria)

[5] = tested on: advanced, well-differentiated pancreatic neuroendocrine tumors; experiment: SANET-p Phase III study, efficacy (RECIST 1.1); type: in vivo, human; details: for Odds ratio, Disease control rate / Odds ratio, Objective response rate: vs placebo
From the text: as §4, with “The targeted population are progressive, locally advanced or distant metastatic, low- or intermediate grade (G1 or G2) pancreatic NETs patients. G1 is defined as <2 mitoses/10 high-power field [HPF]” for “[HPF]”, “index.” for “index; for NETs originating from the lung and thymus gland, G1 is defined as <2 mitoses/10 HPF and no necrosis; G2 is defined as 2-10/10 HPF and/or foci of necrosis. NETs from origin other than GI-NET, lung and thymus, or from unknown origins should be graded according to the GI-NET grading criteria.”
Approximately 195 patients will be randomly assigned (in 2:1 ratio) to the following treatment groups based on interactive web response system IWRS:
as §2, §3, §5, §6, §7, §8

[6] = treatment-related AE, safety set
[7] = treatment-related AE, safety population
[8] = ITT set, 95% CI, listed as surufatinib

## Cc1cc2cc(Oc3ccnc(Nc4cccc(CS(=O)(=O)NCCN(C)C)c4)n3)ccc2[nH]1 [Surufatinib, N-(2-(dimethylamino)ethyl)-1-(3-((4-((2-methyl-1H-indol-5-yl)oxy)pyrimidin-2-yl)amino)phenyl)-methanesulfonamide]
[1]
  on-treatment deaths attributed to adverse events: Two
[1]; [6]
  Arthralgia, ≥Grade 3: 0 n
  Back pain, ≥Grade 3: 0 n
  Bilirubin conjugated increased, ≥Grade 3: 0 n
  Blood creatinine increased, ≥Grade 3: 0 n
  Blood lactate dehydrogenase increased, ≥Grade 3: 0 n
  Blood thyroid stimulating hormone increased, ≥Grade 3: 0 n
  Decreased appetite, ≥Grade 3: 0 n
  Dizziness, ≥Grade 3: 0 n
  Fatigue, ≥Grade 3: 0 n
  Haemoglobin increased, ≥Grade 3: 0 n
  Headache, ≥Grade 3: 0 n
  Hyperbilirubinaemia, ≥Grade 3: 0 n
  Hypercholesterolaemia, ≥Grade 3: 0 n
  Hypoalbuminaemia, ≥Grade 3: 0 n
  Hypothyroidism, ≥Grade 3: 0 n
  Nausea, ≥Grade 3: 0 n
  Occult blood positive, ≥Grade 3: 0 n
Advanced pancreatic NETs; advanced pancreatic NETs, 2/15
  objective response rate: 13.3%
Advanced pancreatic NETs; advanced pancreatic NETs, 11/15
  Disease control rate: 73.3%
Advanced pancreatic NETs; heavily treated advanced pancreatic NETs, 4/16 (3 confirmed, 1 unconfirmed partial response)
  objective response rate: 25.0%
[2]; methyl alcohol or ethyl alcohol
  solubility in methyl alcohol or ethyl alcohol: slightly soluble
[2]; water
  solubility in water: insoluble
NETs
  DCR: 85.7%
  ORR: 38.1%
  not evaluable for response: 3 patients
  patients achieved PR: 8 patients
  patients achieved SD: 10 patients
[3]
  Discontinuation due to proteinuria: 1.6%
  Discontinuation due to urine protein present: 2.3%
  hypertension resulting in dose interruption or reduction: 15.5%
  proteinuria resulting in dose interruption or reduction: 29.5%
  treatment discontinuation for adverse events: 14.7%
[3]; safety population
  Treatment-related adverse event, any grade: 97.7%
[3]; [7]
  ALT increased, ≥Grade 3: 3.1%
  AST increased, ≥Grade 3: 3.9%
  Anemia, ≥Grade 3: 4.7%
  Hyperbilirubinemia, ≥Grade 3: 3.9%
  Hypertension, ≥Grade 3: 36.4%
  Protein urine present, ≥Grade 3: 3.9%
  Proteinuria, ≥Grade 3: 19.4%
[4]; BIIRC-assessed
  Duration of response: 5.6 months
  Time to response: 2.9 months
[4]; BIIRC-assessed, N = 126
  Disease control rate: 77.8%
  objective response rate: 7.9%
[4]; Investigator-assessed, N = 126
  Best overall response: Partial response: 13 n
  Disease control rate: 86.5%
  objective response rate: 10.3%
[4]; N = 129, 300 mg QD orally
  median progression-free survival as assessed by the investigators: 9.2 months
[4]; in vivo
  progression-free survival HR vs placebo, BIIRC-assessment: 0.66
  progression-free survival HR vs placebo, investigators: 0.33
  progression-free survival HR vs placebo, post-hoc adjudicated BIIRC results: 0.57
[4]; investigator-assessed
  Duration of response: 5.6 months
  Time to response: 3.7 months
[4]; investigators
  reduction of the risk of disease progression or death compared with placebo: 67%
[4]; post-hoc subgroup analysis
  HR for median progression-free survival, NETs of unknown or uncommon tumor origins: 0.50
[4]; sensitivity analysis
  median progression-free survival, BIIRC-assessment: 7.4 months
[4]; subgroup, 7.8% of patients
  median progression-free survival, patients previously treated with everolimus: 7.4 months
[5]; BIIRC-assessed
  Duration of response: 15.2 months
  Time to response: 3.9 months
  Odds ratio, Disease control rate: 2.5
  Odds ratio, Objective response rate: 8.8
[5]; BIIRC-assessed, N = 104
  Best overall response: Non-complete response, non-progressive disease: 0 n
[5]; ITT set, N = 113
  PFS (BIIRC assessment), median: 13.9 month
[5]; ITT set, N = 113, 300 mg QD orally
  PFS (Investigator's assessment), median: 10.9 month
[5]; ITT set, 95% CI
  PFS (BIIRC assessment), HR (Surufatinib/Placebo): 0.339 (0.209, 0.549)
  PFS (Investigator's assessment), HR (Surufatinib/Placebo): 0.491 (0.319, 0.755)
[5]; [8]
  PFS (BIIRC assessment), HR (Surufatinib/Placebo): 0.34
  PFS (Investigator's assessment), HR (Surufatinib/Placebo): 0.49
[5]; Table 4, N = 15
  DoR, median: 15.2 month
  TTR, median: 3.9 month
[5]; interim ITT set, N = 104
  Disease control rate, BIIRC-assessed: 84.6%
  Disease control rate, investigator-assessed: 80.8%
  Objective response rate, BIIRC-assessed: 14.4%
  Objective response rate, investigator-assessed: 19.2%
[5]; investigator assessment
  median PFS longer than in the placebo cohort: 7.2 months
  reduction of the risk of disease progression/death vs placebo: 50.9% and 51%
[5]; investigator assessment, listed as surufatinib
  reduction of the risk of disease progression/death vs placebo: 51%
[5]; investigator-assessed
  Duration of response: 7.4 months
  Time to response: 3.8 months
  Odds ratio, Disease control rate: 2.1
  Odds ratio, Objective response rate: 12.4
[5]; investigator-assessed, N = 104
  Best overall response: Partial response: 20 n
[5]; investigator, 95% CI
  DCR, OR (odds ratio) vs placebo: 2.1 (0.9, 4.8)
  ORR, OR (odds ratio) vs placebo: 12.4 (1.8, 522.8)
